According to patent US20240109864A1, “SUBSTITUTED PYRAZOLYL PIPERIDINE CARBOXYLIC ACIDS” (BAYER AKTIENGESELLSCHAFT, priority 2020, published 2024):
Structures can show the parent of a compound that is named as a salt.

Molecular target: T1, recombinant guanylate cyclase reporter cell line (Rattus norvegicus, UniProt P20595)
T1 construct: expressed in transfected cells
T1 sequence (P20595 1-619): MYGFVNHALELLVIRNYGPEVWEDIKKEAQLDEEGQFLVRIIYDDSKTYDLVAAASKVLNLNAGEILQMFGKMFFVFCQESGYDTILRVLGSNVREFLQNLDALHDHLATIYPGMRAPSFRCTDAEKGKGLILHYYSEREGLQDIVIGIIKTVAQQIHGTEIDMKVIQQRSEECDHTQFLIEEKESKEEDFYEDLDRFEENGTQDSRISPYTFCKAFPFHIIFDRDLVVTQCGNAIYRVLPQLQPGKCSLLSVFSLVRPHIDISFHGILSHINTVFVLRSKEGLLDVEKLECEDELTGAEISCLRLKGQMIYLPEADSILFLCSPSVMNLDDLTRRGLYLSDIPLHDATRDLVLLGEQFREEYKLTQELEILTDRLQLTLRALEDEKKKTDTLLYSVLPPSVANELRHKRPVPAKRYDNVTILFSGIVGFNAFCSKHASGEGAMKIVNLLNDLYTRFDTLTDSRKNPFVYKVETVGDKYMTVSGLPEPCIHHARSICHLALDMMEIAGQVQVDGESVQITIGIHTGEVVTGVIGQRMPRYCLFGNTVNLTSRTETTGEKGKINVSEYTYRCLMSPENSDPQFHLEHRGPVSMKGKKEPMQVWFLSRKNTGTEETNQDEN
T1 sequence (P19686 1-690 partner): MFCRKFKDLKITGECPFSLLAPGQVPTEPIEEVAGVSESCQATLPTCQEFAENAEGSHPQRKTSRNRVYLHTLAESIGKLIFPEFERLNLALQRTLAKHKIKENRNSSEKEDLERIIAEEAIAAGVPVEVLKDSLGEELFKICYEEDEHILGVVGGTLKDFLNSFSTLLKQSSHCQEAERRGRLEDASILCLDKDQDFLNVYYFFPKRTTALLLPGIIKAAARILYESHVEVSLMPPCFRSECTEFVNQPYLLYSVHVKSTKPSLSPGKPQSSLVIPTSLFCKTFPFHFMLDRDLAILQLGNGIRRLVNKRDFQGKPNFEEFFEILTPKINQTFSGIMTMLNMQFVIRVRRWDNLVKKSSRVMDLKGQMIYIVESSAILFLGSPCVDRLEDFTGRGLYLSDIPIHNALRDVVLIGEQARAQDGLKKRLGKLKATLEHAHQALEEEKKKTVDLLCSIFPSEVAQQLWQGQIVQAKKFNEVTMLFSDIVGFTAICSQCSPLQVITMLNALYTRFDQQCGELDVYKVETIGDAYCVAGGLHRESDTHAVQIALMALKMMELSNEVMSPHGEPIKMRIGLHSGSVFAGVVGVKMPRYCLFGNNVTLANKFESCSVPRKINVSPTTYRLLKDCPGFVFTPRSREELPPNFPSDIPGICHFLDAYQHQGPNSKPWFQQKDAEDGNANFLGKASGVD
Experiment: Effect on a recombinant guanylate cyclase reporter cell line
Type: cell-based
Conditions: in some cases mean values from individual determinations; for MEC: MEC = minimum effective concentration; for EC50: half maximal effective concentration
Experimental: The cellular activity of the compounds according to the invention was determined using a recombinant guanylate cyclase reporter cell line, as described in F. Wunder et al., Anal. Biochem. 339, 104-112 (2005).

Compound | MEC [nM] | EC50 [nM] | MEC (hydrochloride) [nM]
O=C(O)c1cnn(C2CCCN(c3cc(Cl)ccc3-c3ccc(N4CCN(CCC(F)(F)F)CC4)cc3)C2)c1C(F)(F)F (single isomer, unassigned) [Example 17, 1-[1-[5-Chloro-2-[4-[4-(3,3,3-trifluoropropyl)piperazin-1-yl]phenyl]phenyl]-3-piperidyl]-5-(trifluoromethyl)pyrazole-4-carboxylic acid hydrochloride] | <0.3 | 1.4 | –
O=C(O)c1cnn(C2CCCN(c3cc(Cl)ccc3-c3ccc(C4CCN(C(=O)C5CC5)CC4)cc3)C2)c1C(F)(F)F (single isomer, unassigned) [Example 85, 1-[1-[5-Chloro-2-[4-[1-(cyclopropanecarbonyl)-4-piperidyl]phenyl]phenyl]-3-piperidyl]-5-(trifluoromethyl)pyrazole-4-carboxylic acid hydrochloride] | – | 1.1 | <0.3
CCN1CCN(c2ccc(-c3ccc(Cl)cc3N3CCCC(n4ncc(C(=O)O)c4C(F)(F)F)C3)cc2F)CC1 (single isomer, unassigned) [Example 70, 1-[1-[5-Chloro-2-[4-(4-ethylpiperazin-1-yl)-3-fluoro-phenyl]phenyl]-3-piperidyl]-5-(trifluoromethyl)pyrazole-4-carboxylic acid] | 30.0 | 99 | –
CC(C)(F)C(=O)N1CCN(c2ccc(-c3ccc(Cl)cc3N3CCCC(n4ncc(C(=O)O)c4C(F)(F)F)C3)cc2)CC1 (single isomer, unassigned) [Example 39, 1-[1-[5-Chloro-2-[4-[4-(2-fluoro-2-methyl-propanoyl)piperazin-1-yl]phenyl]phenyl]-3-piperidyl]-5-(trifluoromethyl)pyrazole-4-carboxylic acid] | 10.0 | 59 | –
O=C(O)c1cnn(C2CCCN(c3cc(Cl)ccc3-c3ccc(N4CCN(CC5(F)CC5)CC4)cc3)C2)c1C(F)(F)F (single isomer, unassigned) [Example 9, 1-[1-[5-Chloro-2-[4-[4-[(1-fluorocyclopropyl)methyl]piperazin-1-yl]phenyl]phenyl]-3-piperidyl]-5-(trifluoromethyl)pyrazole-4-carboxylic acid hydrochloride] | 0.3 | 1.1 | –
O=C(O)c1cnn(C2CCCN(c3cc(Cl)ccc3-c3ccc(N4CCN(C(=O)OCC5CC5)CC4)cc3)C2)c1C(F)(F)F (single isomer, unassigned) [Example 60, 1-[1-[5-Chloro-2-[4-[4-(cyclopropylmethoxycarbonyl)piperazin-1-yl]phenyl]phenyl]-3-piperidyl]-5-(trifluoromethyl)pyrazole-4-carboxylic acid] | 10.0 | 47.5 | –
CC(C)N1CCN(c2ccc(-c3ccc(Cl)cc3N3CCCC(n4ncc(C(=O)O)c4C(F)(F)F)C3)cc2)CC1 (single isomer, unassigned) [Example 6, 1-[1-[5-Chloro-2-[4-(4-isopropylpiperazin-1-yl)phenyl]phenyl]-3-piperidyl]-5-(trifluoromethyl)pyrazole-4-carboxylic acid hydrochloride] | 10.0 | 88 | –
CC(C)(C)CN1CCN(c2ccc(-c3ccc(Cl)cc3N3CCCC(n4ncc(C(=O)O)c4C(F)(F)F)C3)cc2)CC1 (single isomer, unassigned) [Example 18, 1-[1-[5-Chloro-2-[4-[4-(2,2-dimethylpropyl)piperazin-1-yl]phenyl]phenyl]-3-piperidyl]-5-(trifluoromethyl)pyrazole-4-carboxylic acid hydrochloride] | 10.0 | 63.5 | –
O=C(O)c1cnn(C2CCCN(c3cc(Cl)ccc3-c3ccc(N4CCN(CC5CC5F)CC4)cc3)C2)c1C(F)(F)F (single isomer, unassigned) [Example 26, 1-[1-[5-Chloro-2-[4-[4-[[2-trans-fluorocyclopropyl]methyl]piperazin-1-yl]phenyl]phenyl]-3-piperidyl]-5-(trifluoromethyl)pyrazole-4-carboxylic acid hydrochloride] | – | 5.2 | 1.0

Other lines, results leading:

MEC [nM] | EC50 [nM] | MEC (hydrochloride) [nM] | Compound
30.0 | 82.5 | – | O=C(O)c1cnn(C2CCCN(c3cc(Cl)ccc3-c3ccc(N4CCN(CC(F)(F)F)CC4)nc3)C2)c1C(F)(F)F (single isomer, unassigned) [Example 77, 1-[1-[5-Chloro-2-[6-[4-(2,2,2-trifluoroethyl)piperazin-1-yl]-3-pyridyl]phenyl]-3-piperidyl]-5-(trifluoromethyl)pyrazole-4-carboxylic acid]
1.0 | 4.8 | – | O=C(O)c1cnn(C2CCCN(c3cc(Cl)ccc3-c3ccc(N4CCN(CCC(F)(F)F)CC4)nc3)C2)c1C(F)(F)F (single isomer, unassigned) [Example 76, 1-[1-[5-Chloro-2-[6-[4-(3,3,3-trifluoropropyl)piperazin-1-yl]-3-pyridyl]phenyl]-3-piperidyl]-5-(trifluoromethyl)pyrazole-4-carboxylic acid hydrochloride]
3.0 | 8.9 | – | O=C(O)c1cnn(C2CCCN(c3cc(Cl)ccc3-c3ccc(N4CCN(CC5CC56CC6)CC4)cc3)C2)c1C(F)(F)F (single isomer, unassigned) [Example 30, 1-[1-[5-Chloro-2-[4-[4-(spiro[2.2]pentan-2-ylmethyl)piperazin-1-yl]phenyl]phenyl]-3-piperidyl]-5-(trifluoromethyl)pyrazole-4-carboxylic acid hydrochloride]
3.0 | 17 | – | O=C(O)c1cnn(C2CCCN(c3cc(Cl)ccc3-c3ccc(N4CCN(C(=O)C5CC5(F)F)CC4)cc3)C2)c1C(F)(F)F (single isomer, unassigned) [Example 47, 1-[1-[5-Chloro-2-[4-[4-[2,2-difluorocyclopropanecarbonyl]piperazin-1-yl]phenyl]phenyl]-3-piperidyl]-5-(trifluoromethyl)pyrazole-4-carboxylic acid]
0.3 | 6.9 | – | O=C(O)c1cnn(C2CCCN(c3cc(Cl)ccc3-c3ccc(N4CCN(C[C@H]5C[C@H]5F)CC4)cc3)C2)c1C(F)(F)F (single isomer, unassigned) [Example 29, hydrochloride]
3.0 | 44 | – | COCCC(=O)N1CCN(c2ccc(-c3ccc(Cl)cc3N3CCCC(n4ncc(C(=O)O)c4C(F)(F)F)C3)cc2)CC1 (single isomer, unassigned) [Example 41, 1-[1-[5-Chloro-2-[4-[4-(3-methoxypropanoyl)piperazin-1-yl]phenyl]phenyl]-3-piperidyl]-5-(trifluoromethyl)pyrazole-4-carboxylic acid]
– | 4.6 | 1.0 | O=C(O)c1cnn(C2CCCN(c3cc(Cl)ccc3-c3ccc(N4CCN(CC(F)F)CC4)cc3)C2)c1C(F)(F)F (single isomer, unassigned) [Example 12, 1-[1-[5-Chloro-2-[4-[4-(2,2-difluoroethyl)piperazin-1-yl]phenyl]phenyl]-3-piperidyl]-5-(trifluoromethyl)pyrazole-4-carboxylic acid hydrochloride]
– | 5.5 | 3.0 | O=C(O)c1cnn(C2CCCN(c3cc(Cl)ccc3-c3ccc(N4CCN(C[C@@H]5C[C@@H]5F)CC4)cc3)C2)c1C(F)(F)F (single isomer, unassigned) [Example 28, hydrochloride]
10.0 | 27 | – | COCCCOC(=O)N1CCN(c2ccc(-c3ccc(Cl)cc3N3CCCC(n4ncc(C(=O)O)c4C(F)(F)F)C3)cc2)CC1 (single isomer, unassigned) [Example 63, 1-[1-[5-Chloro-2-[4-[4-(3-methoxypropoxycarbonyl)piperazin-1-yl]phenyl]phenyl]-3-piperidyl]-5-(trifluoromethyl)pyrazole-4-carboxylic acid]
